Measured values taken from ChEMBL document CHEMBL1201862, “PubChem BioAssay data set” (2004).
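Cells were grown in 96-well plates and exposed to each compound for 48 hours at five concentrations; endpoints were interpolated linearly between bracketing concentrations, or set to the highest concentration if not reached. GI50 marks 50% less growth.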 Active and inactive are the calls of the source. Cut-off read from the data, not from the text of the source: active = GI50 up to about 1.1 µM and inactive = higher.

What was measured:
Assay in all cases: NCI tumour cell line growth inhibition, 48 h
NCI-H460 = tested on: NCI-H460
OVCAR-5 = tested on: OVCAR-5
Malme-3M = tested on: Malme-3M
EKVX = tested on: EKVX
UACC-257 = tested on: UACC-257
KM12 = tested on: KM12
ACHN = tested on: ACHN
SK-MEL-28 = tested on: SK-MEL-28
HCT-116 = tested on: HCT-116
RXF 393 = tested on: RXF 393
CAKI-1 = tested on: CAKI-1
OVCAR-4 = tested on: OVCAR-4
SK-MEL-5 = tested on: SK-MEL-5
NCI-H522 = tested on: NCI-H522
SW-620 = tested on: SW-620
HL-60 = tested on: HL-60

Measured: GI50

NNC(=O)C(=O)NN=C(C(Cl)(Cl)CO)C(Cl)(Cl)CO
inactive: NCI-H460 44.9 µM | OVCAR-5 31.3 µM | Malme-3M 19.8 µM | EKVX 40.7 µM | UACC-257 30.6 µM | KM12 44.1 µM | ACHN 31.3 µM | SK-MEL-28 25.6 µM | HCT-116 20.6 µM | RXF 393 21.9 µM | CAKI-1 26.9 µM | OVCAR-4 > 100 µM | SK-MEL-5 40.4 µM | NCI-H522 12.1 µM | SW-620 18.4 µM | HL-60 22.1 µM

C=C[C@H]1C=Cc2c(OC)cccc2[C@@H]1COP1(=S)NC(C)C(c2ccccc2)O1 (stereo partly drawn)
inactive: NCI-H460 > 100 µM | EKVX > 100 µM | KM12 > 100 µM | SK-MEL-28 > 100 µM | HCT-116 52.8 µM | RXF 393 51.1 µM | OVCAR-4 > 100 µM | SK-MEL-5 44.2 µM | NCI-H522 29.4 µM | SW-620 > 100 µM | HL-60 18.9 µM

COC(=O)[C@]1(C)CCC[C@@]2(C)C1CCC1=C[C@@]3(C(C)C)CC[C@]12OO3 (stereo partly drawn)
inactive: NCI-H460 21.1 µM | OVCAR-5 22.4 µM | Malme-3M 42 µM | EKVX 36.6 µM | UACC-257 26.2 µM | KM12 24.6 µM | ACHN 36.4 µM | HCT-116 25.2 µM | CAKI-1 > 10 µM | OVCAR-4 42.3 µM | SK-MEL-5 15.7 µM | NCI-H522 17.8 µM | SW-620 36.1 µM | HL-60 19.1 µM

O=C1c2cccc3cccc(c23)C(=O)N1CCCN1CCN(CCCN2C(=O)c3cccc4cccc(c34)C2=O)CC1
inactive: NCI-H460 > 100 µM | OVCAR-5 > 100 µM | Malme-3M > 100 µM | EKVX > 100 µM | UACC-257 > 100 µM | KM12 > 100 µM | ACHN > 100 µM | HCT-116 > 100 µM | RXF 393 > 100 µM | CAKI-1 > 100 µM | OVCAR-4 > 100 µM | SK-MEL-5 > 100 µM | SW-620 > 100 µM | HL-60 > 100 µM

N#Cc1ccccc1Nc1ccccc1S
inactive: NCI-H460 35.2 µM | OVCAR-5 29.4 µM | Malme-3M 20.5 µM | EKVX 57.7 µM | UACC-257 57.3 µM | KM12 38.2 µM | ACHN 51.1 µM | SK-MEL-28 41.2 µM | RXF 393 18.9 µM | CAKI-1 > 100 µM | OVCAR-4 37.9 µM | SK-MEL-5 17.9 µM | SW-620 22.1 µM | HL-60 25.3 µM

COc1ccc(C)cc1-c1ccc(-c2cc(C)ccc2OC)o1
inactive: NCI-H460 > 100 µM | OVCAR-5 87.1 µM | Malme-3M 66.4 µM | EKVX > 100 µM | UACC-257 > 100 µM | KM12 > 100 µM | ACHN > 100 µM | SK-MEL-28 > 100 µM | HCT-116 > 100 µM | CAKI-1 > 100 µM | OVCAR-4 > 100 µM | NCI-H522 > 100 µM | SW-620 > 100 µM | HL-60 86.5 µM

COC(=O)[C@@]12C3=NO[C@]1(C(=O)OC)C(O[Si](C)(C)C(C)(C)C)[C@@H](OC(C)=O)[C@@H](OC(C)=O)[C@@H]2[C@@H](OCc1ccccc1)CC3 (stereo partly drawn)
inactive: NCI-H460 3.59 µM | OVCAR-5 8.79 µM | Malme-3M 7.28 µM | EKVX > 27.7 µM | UACC-257 17.4 µM | KM12 > 100 µM | ACHN 4.44 µM | SK-MEL-28 > 23.8 µM | HCT-116 5.07 µM | RXF 393 3.06 µM | CAKI-1 3.8 µM | OVCAR-4 4.82 µM | SK-MEL-5 4.16 µM | NCI-H522 3.86 µM | SW-620 > 100 µM | HL-60 3.86 µM

COc1c(C)c(O)c2c(c1C)OC(c1ccccc1)CC2=O (stereo not drawn)
inactive: NCI-H460 36.8 µM | OVCAR-5 61.8 µM | Malme-3M 24.6 µM | EKVX 65.2 µM | UACC-257 > 10 µM | KM12 52.6 µM | ACHN 51.9 µM | SK-MEL-28 50.4 µM | HCT-116 47.8 µM | CAKI-1 41.2 µM | OVCAR-4 67.9 µM | SK-MEL-5 > 10 µM | NCI-H522 45.9 µM | SW-620 64.4 µM | HL-60 28.3 µM

COc1cc(/C=C/c2ccc(Br)cc2)cc(OC)c1OC
inactive: NCI-H460 11.6 µM | OVCAR-5 16.6 µM | Malme-3M 6.08 µM | EKVX 11.2 µM | UACC-257 13.5 µM | KM12 8.11 µM | ACHN 18.9 µM | SK-MEL-28 6.21 µM | HCT-116 4.55 µM | RXF 393 15.7 µM | CAKI-1 6.24 µM | OVCAR-4 21.3 µM | SK-MEL-5 5.9 µM | NCI-H522 11.8 µM | SW-620 7.62 µM | HL-60 3.74 µM

CC1SC2=NC3=C(c4ccccc4C3=O)C(c3ccc(Cl)cc3)N2C1=O (stereo not drawn)
inactive: NCI-H460 > 100 µM | OVCAR-5 > 100 µM | Malme-3M > 100 µM | EKVX > 100 µM | UACC-257 > 100 µM | KM12 > 100 µM | ACHN > 100 µM | SK-MEL-28 > 100 µM | CAKI-1 > 100 µM | OVCAR-4 61.1 µM | SK-MEL-5 > 100 µM | NCI-H522 25.1 µM | SW-620 > 100 µM | HL-60 > 100 µM

CCOc1ccc(NC(=O)CC2C(=O)Nc3ccccc3S2(=O)=O)cc1 (stereo not drawn)
inactive: NCI-H460 > 100 µM | OVCAR-5 > 100 µM | Malme-3M > 100 µM | EKVX > 100 µM | UACC-257 > 100 µM | KM12 > 100 µM | ACHN > 100 µM | SK-MEL-28 > 100 µM | HCT-116 > 100 µM | RXF 393 64.1 µM | OVCAR-4 > 100 µM | NCI-H522 > 100 µM | SW-620 > 100 µM | HL-60 > 100 µM

C/C(=N/NC(=O)C[n+]1ccccc1)C(CN(CC(C)C)CC(C)C)C(=O)Nc1ccc(C)cc1C (stereo not drawn)
inactive: NCI-H460 > 100 µM | OVCAR-5 65.5 µM | Malme-3M > 100 µM | EKVX 45.1 µM | UACC-257 > 100 µM | ACHN 54.5 µM | SK-MEL-28 > 100 µM | HCT-116 > 100 µM | RXF 393 61.2 µM | OVCAR-4 > 100 µM | SK-MEL-5 > 100 µM | NCI-H522 40.8 µM | SW-620 > 100 µM | HL-60 59.6 µM

Cc1nsc2cc(Cl)n(C)c(=O)c12
inactive: NCI-H460 > 100 µM | OVCAR-5 > 100 µM | Malme-3M > 100 µM | EKVX 50.4 µM | UACC-257 > 100 µM | KM12 > 100 µM | ACHN > 100 µM | SK-MEL-28 > 100 µM | HCT-116 > 100 µM | RXF 393 > 100 µM | CAKI-1 40.4 µM | OVCAR-4 > 100 µM | SK-MEL-5 > 100 µM | NCI-H522 24.8 µM | SW-620 > 100 µM | HL-60 > 100 µM

CC(=O)NC1=C(NCCO)C(=O)c2ccccc2C1=O
inactive: NCI-H460 > 50 µM | Malme-3M 12.8 µM | EKVX > 50 µM | UACC-257 > 50 µM | KM12 > 50 µM | ACHN > 50 µM | SK-MEL-28 > 50 µM | HCT-116 30.1 µM | RXF 393 > 50 µM | OVCAR-4 > 50 µM | SK-MEL-5 29.9 µM | NCI-H522 24.5 µM | SW-620 > 50 µM | HL-60 20.8 µM

CCOC(=O)C(=O)Nc1ccccc1OCC
inactive: NCI-H460 > 100 µM | OVCAR-5 > 100 µM | Malme-3M > 100 µM | EKVX > 100 µM | UACC-257 > 100 µM | KM12 > 100 µM | ACHN > 100 µM | SK-MEL-28 > 100 µM | HCT-116 > 100 µM | RXF 393 > 100 µM | CAKI-1 > 100 µM | OVCAR-4 > 100 µM | SK-MEL-5 > 100 µM | NCI-H522 > 100 µM | SW-620 > 100 µM | HL-60 > 100 µM

CN1N=CSC12C(=O)N(c1ccccc1)C(=O)N2c1ccccc1 (stereo not drawn)
inactive: NCI-H460 > 100 µM | OVCAR-5 > 100 µM | Malme-3M > 100 µM | EKVX > 100 µM | UACC-257 > 100 µM | KM12 > 100 µM | ACHN > 100 µM | SK-MEL-28 > 100 µM | HCT-116 > 100 µM | RXF 393 > 100 µM | CAKI-1 > 100 µM | OVCAR-4 82.2 µM | SK-MEL-5 > 100 µM | SW-620 > 100 µM | HL-60 > 100 µM

CC(C)(C)c1cc2c3c(c1)c(=O)c1cccc4c(O)c5cccc(c2=O)c5c-3c41
inactive: NCI-H460 54.1 µM | OVCAR-5 92.5 µM | Malme-3M > 100 µM | EKVX > 100 µM | UACC-257 > 100 µM | KM12 38.1 µM | ACHN > 100 µM | SK-MEL-28 10 µM | HCT-116 59.7 µM | RXF 393 34 µM | CAKI-1 > 100 µM | OVCAR-4 > 100 µM | NCI-H522 > 100 µM | SW-620 > 100 µM | HL-60 58.5 µM

C[C@]12CCC(=O)C=C1CC[C@@H]1C2CC[C@]2(C)Nc3c(cnn3-c3ccccc3)CC12 (stereo partly drawn)
inactive: NCI-H460 > 100 µM | OVCAR-5 > 100 µM | Malme-3M > 100 µM | EKVX > 100 µM | UACC-257 > 100 µM | KM12 > 10 µM | ACHN > 100 µM | SK-MEL-28 > 100 µM | HCT-116 > 100 µM | RXF 393 > 100 µM | CAKI-1 > 100 µM | OVCAR-4 > 100 µM | SK-MEL-5 > 100 µM | SW-620 > 100 µM | HL-60 > 100 µM
